Reference: patent publication US10780043B2, “Cosmetic compositions comprising ginger root extracts” (Symrise AG, priority 2015, dated 2020)

Tested on: CYP1A1 gene expression
Experiment: CYP1A1 gene expression (qRT-PCR) in keratinocytes after induction with model particles
Assay type: cell-based, human
Conditions: 10 μM, untreated = 1
Protocol: Gene expression was analyzed via qRT-PCR.

With “E/Z-2-benzylindene-5,6-dimethoxy-3,3-dimethylindan-1-one [BDDI]” as the substance, how does the “CYP1A1 Induction mean ± SE” value (NHEK adult, SRM1650 1.5 μg/cm2, 6 h) read?
Its value is 0.02 ± 0.00.

And the “CYP1A1 Induction mean ± SE” value (NHEK adult, SRM2975 1.5 μg/cm2, 6 h)?
Its value is 0.20 ± 0.00.

And the “CYP1A1 Induction mean ± SE” value (NHEK adult, SRM2975 1.5 μg/cm2, 24 h)?
Its value is 0.01 ± 0.00.

What about the “CYP1A1 Induction mean ± SE” value (indoor particles Huber990 1.5 μg/cm2, 6 h) of the same substance?
Its value is 0.05 ± 0.00.

What about the “CYP1A1 Induction mean ± SE” value (indoor particles Huber990 1.5 μg/cm2, 24 h) of the same substance?
The value was 0.20 ± 0.00.
